Reference: publication PMC5874716, “Antimicrobial Peptides for Topical Treatment of Osteomyelitis and Implant-Related Infections: Study in the Spongy Bone” (Pharmaceuticals, 2018)
Non-standard residues stand in square brackets, D forms with d. Residues, ends and D or L forms follow the SMILES beside them.

What was measured:
C. glabrata DSY565 = test: Biofilm formation on bone cement (Palacos r) model implants in infected femur head; design: species or system Candida glabrata; conditions: microbes infiltrated from a hole between implants; 2 days; single experiment
From the text: (§1) The poly(methyl methacrylate)-based bone cement with or without AMPs was implanted either inside infected holes or inside non-infected holes. In the latter case, the microbes infiltrated towards the implant from a hole made between them at roughly equal distance from each (Figure 3). This would simulate the authentic situation in which the pathogens can infect an orthopaedic implant by spreading through the bloodstream or contiguously from areas of infection. We evaluated the experiments on the basis of the amounts of microbes released from the biofilms supposedly formed on the surfaces of the implants that were removed from the infected bone samples.
(§2) The bone samples with bored holes inside were prepared and handled as above. The bone cement (Palacos®r, Hereaus Medical GmbH, Wehrheim, Germany) with AMP incorporated was prepared by swift and thorough mixing of the polymer powder component (poly-methylacrylate, methyl methacrylate, 125 mg) and AMP (10 mg) or antibiotic (10 mg) with the liquid monomer (methyl methacrylate, N,N-dimethyl-p-toluidine, hydroquinone and colorant E141, 70 μL). The resulting elastic paste was pressed using a 2 mL plastic syringe into two bored holes, where it polymerized and solidified. The paste without peptide for filling of the remaining two holes was prepared similarly by mixing the powder component (125 mg) and liquid component (68 μL). […]

[1] = tested on: C. albicans ATCC MYA-2876; test: as above; design: species or system Candida albicans; conditions: microbes infiltrated from a hole between implants, 2 days, single experiment
From the text: as §1, §2

Candida albicans = format: cell-based; conditions: Bioscreen C; at least three times in duplicates
Procedure: (§3) Femur heads (ca. 70 pieces) taken from patients during hip replacement surgery were periodically purchased in the period between 2014–2017 as discarded from the bone tissue bank at University Hospital in Motol, Prague, Czech Republic. The reason for the replacements by artificial prosthesis was the worn out cartilage on the surface of their heads. Bone samples were stored at −80 °C under standard conditions of certified tissue banks. In the laboratory, they were kept at +5 °C overnight and then at room temperature for several hours before they could be used for the experiments. The experiments with this material were approved by the Ethics Committee for Multi-Centric Clinical Trials of the University Hospital Motol, Reference No: EK-655/15. Methicillin-resistant S. aureus (MRSA 6271) ATCC 43300 and P. aeruginosa (5482) ATCC 27853 were purchased from the Czech National Collection of Type Cultures, National Institute of Public Health, Prague, Czech Republic. Methicillin-resistant S. aureus (MRSA (L)) and P. aeruginosa (L) were obtained as multi-resistant clinical isolates from Liberec Regional Hospital, Liberec, Czech Republic. Methicillin-resistant S. aureus (MRSA (M)), E. faecalis and S. epidermidis were obtained as clinical isolates from University Hospital in Motol, Prague. Candida albicans (F7-39/IDE99) came from the mycological collection of the Faculty of Medicine, Palacky University, Olomouc, Czech Republic. C. albicans ATCC MYA-2876, C. tropicalis ATCC 750 and C. glabrata DSY565 were kindly provided by Dr. Hana Sychrová from the Institute of Physiology, Academy of Sciences of the Czech Republic, Prague. Vancomycin hydrochloride, gentamicin sulfate, ceftriaxone disodium salt, amphotericin B, fluconazole, and clotrimazole were obtained from Sigma-Aldrich, Prague, Czech Republic.
(§4) MIC values for peptides were established by observing growth of treated bacteria in HONEYCOMB 100-well microtiter plates (Helsinki, Finland) using a Bioscreen C instrument (Oy Growth Curves, Helsinki, Finland) as previously described. Haemolytic activity of peptides expressed as the concentration of a peptide required for lysis of 50% of human erythrocytes in the assay (LC50) was measured using a Tecan infinite M200 PRO reader (Tecan Austria GmbH, Grödig, Austria). Blood samples for determining haemolytic activity were obtained from healthy volunteers.

human erythrocytes = test: Haemolysis assay; format: cell-based; conditions: concentration causing lysis of 50% of human red blood cells; at least three times in duplicates
Procedure: as §4

[2] = tested on: MRSA clinical isolate from University Hospital in Motol (MRSA (M)); test: microbe, parasite or virus in culture; format: cell-based; conditions: clinical isolate Motol; Bioscreen C; at least three times in duplicates
Procedure: as §3, §4

[3] = tested on: E. faecalis clinical isolate (Motol); test: microbe, parasite or virus in culture; format: cell-based; conditions: clinical isolate Motol; Bioscreen C; at least three times in duplicates
Procedure: as §3, §4

[4] = tested on: S. epidermidis clinical isolate (Motol); test: microbe, parasite or virus in culture; format: cell-based; conditions: clinical isolate Motol; Bioscreen C; at least three times in duplicates
Procedure: as §3, §4

[5] = tested on: P. aeruginosa clinical isolate from Liberec Regional Hospital; test: microbe, parasite or virus in culture; format: cell-based; conditions: clinical isolate Liberec; Bioscreen C; at least three times in duplicates
Procedure: as §3, §4

[6] = tested on: P. aeruginosa (5482) ATCC 27853; test: microbe, parasite or virus in culture; format: cell-based; conditions: Bioscreen C; at least three times in duplicates
Procedure: as §3, §4

[7] = tested on: MRSA clinical isolate from Liberec Regional Hospital (MRSA (L)); test: microbe, parasite or virus in culture; format: cell-based; conditions: clinical isolate Liberec; Bioscreen C; at least three times in duplicates
Procedure: as §3, §4

MRSA 6271 (ATCC 43300) = test: microbe, parasite or virus in culture; format: cell-based; conditions: growth in 100-well microtiter plates, Bioscreen C; tested at least three times in duplicates
Procedure: as §3, §4

Micrococcus luteus = test: Drop diffusion test; format: cell-based; conditions: RP-HPLC peak of bone marrow extract containing the three defensins; not shown
From the text: In several cases when an all-D isomeric peptide alone, or in combination with its parent L-isomer in a 1:4 ratio in the blend with the carrier were applied to the infected hole, we observed a zero microbial count. We suppose that the contribution of D-isomeric peptides (II, VII, X, XII) to bacterial eradication was due to their resistance to proteases either exerted by bacteria or originated from the cells of the bone tissue. In these cases, we detected intact all-D peptide in the extract of the fillings (recovered from the infected hole after completing the experiment) by Reversed-Phase (RP)-HPLC analysis (not shown). On the other hand, the RP-HPLC analyses of the extracts of the fillings containing solely L-peptides indicated partial to complete digestion of peptides by proteases. Nevertheless, we assume that in all cases presented in Table 3 and Figure 2, it was the fast killing effect of AMPs on bacteria that played a conclusive role in eradicating the infection in the bone samples. When carrying out the experiments, we had to take into account that the bacterial load in an infected hole also could be reduced by components of the bone marrow immune system, including blood cells such as neutrophils. […] In one of the RP-HPLC peaks, we detected by mass spectrometry the presence of three human α-defensins HNP1, HNP2, and HNP3 [32] […]

Q: With `Clc1ccccc1C(c1ccccc1)(c1ccccc1)n1ccnc1` [Clotrimazole, clotrimazole, reference compound] as the molecule, how does the “CFU/Implant, C. glabrata” value (C. glabrata DSY565) read?
A: Its value is 1.2 × 10^6 CFU/implant.

Q: `OC(Cn1cncn1)(Cn1cncn1)c1ccc(F)cc1F` [Fluconazole, fluconazole, reference compound] was tested. Which “CFU/Implant, C. albicans c” value [1] did it give?
A: Its value is 3.6 × 10^4 CFU/implant.

Q: What does the source list for `CC[C@H](C)[C@H](NC(=O)[C@H](CCCCN)NC(=O)[C@H](CCCCN)NC(=O)[C@@H](CC(C)C)NC(=O)[C@H](CC(C)C)NC(=O)[C@H](CCCCN)NC(=O)[C@H](CCSC)NC(=O)[C@H](Cc1c[nH]c2ccccc12)NC(=O)[C@H](CCCCN)NC(=O)CN)C(=O)N[C@@H](CC(C)C)C(=O)N[C@@H](CCCCN)C(N)=O` [VIII] (H-GKWMKL[dL]KKILK-NH2; N-terminus assumed)?
A: CFU/Implant, C. albicans c [1]: 6.0 × 10^3 CFU/implant; Antimicrobial Activity MIC, C. a. (Candida albicans): 8.0 µM; Haemolytic Activity LC50 (human erythrocytes): >400 µM; Antimicrobial Activity MIC, MRSA b [2]: 32.0 µM; Antimicrobial Activity MIC, E. f. b [3]: >100 µM; Antimicrobial Activity MIC, S. e. b [4]: 4.0 µM; Antimicrobial Activity MIC, P. a. a [5]: 32.0 µM; Antimicrobial Activity MIC, P. a. 5482 [6]: 5.0 µM; Antimicrobial Activity MIC, MRSA a [7]: 13.3 µM; Antimicrobial Activity MIC, MRSA 6271 (MRSA 6271 (ATCC 43300)): 18.7 µM; CFU/Implant, C. glabrata (C. glabrata DSY565): 2.4 × 10^3 CFU/implant

Q: With “CYCRIPACIAGERRYGTCIYQGRLWAFCC [HNP2, human α-defensin detected in bone marrow extract of the femur head]” as the molecule, how does the “antimicrobial activity in drop diffusion tests” value (Micrococcus luteus) read?
A: Its value is “exhibited antimicrobial activity”.
